Reference: patent US20230000852A1, “Treatment of Dermal Cytokine Storm Syndromes” (Bridge Pharma, Inc., priority 2021, published 2023)
Where two headings read alike, the source gives them in different places.

Columns and labels:
[1] = tested on: human leucocytes (buffy coats); assay: Cytokine and chemokine release from stimulated human leucocytes, overall; format: cell-based; details: PHA 5 μg/ml, 16 hours
Description: (§1) The objective of this study was to assess the ability of norketotifen to inhibit cytokine release from stimulated human leucocytes.
The study was conducted in two phases. The first phase included optimization of the test methodology and including dose-range finding studies, using buffy coats from 3 human donors, stimulated with phytohemagglutinin (PHA). Following optimization of the test conditions, a final protocol was issued. In the ensuing Main Study, white blood cells (buffy coats) from 5 healthy human donors were stimulated with PHA, 5 μg/ml. The concentrations of the test article and the duration of exposure were optimized to obtain acceptable dose-response ratios. Thus, the inhibitory effects of three concentrations of NK and one concentration of ketotifen were evaluated in the Main Study. The buffy coats containing white blood cells from 5 male human donors were resuspended in assay media and were pre-incubated for 30 min with either vehicle/saline, ketotifen 4.3 μg/ml (10 μM) and norketotifen 0.4 μg/ml, 4.1 μg/ml and 41 μg/ml (1.0; 10 and 100 μM). Following these preincubations, the white blood cells were stimulated for 16 hours with PHA, 5 μg/ml. The cell system supernatants were then harvested and stored frozen pending analyses. […]

[2] = tested on: IL-2; assay: PHA-induced IL-2 release from human leucocytes (buffy coats); format: cell-based; details: Leucocyte, 30 min pre-incubation, PHA 5 μg/ml 16 hours
Description: as §1
(§2) The study was conducted in two phases. The first phase included optimization of the test methodology and including dose-range finding studies, using buffy coats from 3 human donors, stimulated with phytohemagglutinin (PHA). Following optimization of the test conditions, a final protocol was issued. In the ensuing Main Study, white blood cells (buffy coats) from 5 healthy human donors were stimulated with PHA, 5 μg/ml. The concentrations of the test article and the duration of exposure were optimized to obtain acceptable dose-response ratios. Thus, the inhibitory effects of three concentrations of NK and one concentration of ketotifen were evaluated in the Main Study. The buffy coats containing white blood cells from 5 male human donors were resuspended in assay media and were pre-incubated for 30 min with either vehicle/saline, ketotifen 4.3 μg/ml (10 μM) and norketotifen 0.4 μg/ml, 4.1 μg/ml and 41 μg/ml (1.0; 10 and 100 μM). Following these preincubations, the white blood cells were stimulated for 16 hours with PHA, 5 μg/ml. The cell system supernatants were then harvested and stored frozen pending analyses.
(§3) The concentration of the test articles had to be high in this ex vivo study since the test kit used a high concentration of the agonist PHA (5 μg/ml) and a long exposure time (16 hrs).

[3] = tested on: IL-4; assay: PHA-induced IL-4 release from human leucocytes (buffy coats); format: cell-based; details: Leucocyte, 30 min pre-incubation, PHA 5 μg/ml 16 hours
Description: as §1, §2, §3

[4] = tested on: sedation; details: art-accepted mouse model of sedation; U.S. Pat. Nos. 7,226,934 and 7,557,128; cited from earlier work
[5] = tested on: IL-1β; assay: PHA-induced IL-1β release from human leucocytes (buffy coats); format: cell-based; details: Leucocyte, 30 min pre-incubation, PHA 5 μg/ml 16 hours
Description: as §1, §2, §3

[6] = tested on: IL-10; assay: PHA-induced IL-10 release from human leucocytes (buffy coats); format: cell-based; details: Leucocyte, 30 min pre-incubation, PHA 5 μg/ml 16 hours
Description: as §1, §2, §3

[7] = tested on: TNFα; assay: PHA-induced TNFα release from human leucocytes (buffy coats); format: cell-based; details: Leucocyte, 30 min pre-incubation, PHA 5 μg/ml 16 hours
Description: as §1, §2, §3

[8] = tested on: IMQ-induced psoriasiform hypercytokinemia; assay: Imiquimod (IMQ) induced psoriasis in mice; format: in vivo; details: for Scratching bouts: Day 6, 30 minutes observation; for Total Scores ± SEM: cumulative erythema plus scaling plus thickness; for Mean Scores of Skin Lesions: Redness / Mean Scores of Skin Lesions: Scaling / Mean Scores of Skin Lesions: Thickness: scale 0 to 4
Source text: The objective of this study was to assess the ability of NK to inhibit the IMQ-induced psoriasiform hypercytokinemia in mice. Topically applied IMQ is known to induce a psoriasis-like Cytokine Storm in mice by releasing a large number of cytokines, thereby causing a disease (hypercytokinemia) that is closely similar to psoriasis in human patients. Female BALB/c mice were used (8-11 weeks old; 4 animals/group). A psoriasiform skin condition was induced by repeated applications of an IMO-cream on the pre-shaved skin of the back of mice for 6 days, using […] 5% cream (IMQ-cream), at a dose of 62.5 mg per mouse, which is equal to 3.125 mg active per mouse. Starting from day 3 of dosing the skin was scored for Redness, Thickness and Scaling using a scoring system on the scale of 0 to 4, where 0=none; 1=slight; 2=moderate; 3=marked; and 4=very marked. The cumulative scores (erythema plus scaling plus thickness) served as a measure of the severity of dermal, psoriasis-like inflammation. […] A scratch bout was defined as one or more rapid back-and-forth hind paw motions directed toward and contacting the IMQ-treated area. • Group 1: (IMQ Positive Control Group): 4 mice were treated as described above. • Group 2: 4 mice were given NK 10 mg/kg/day, PO, starting 3 days before the first application of IMQ. • Group 3: same treatment as Group 2, but the dose of NK was 20 mg/kg/day. • Group 4: same treatment as Group 3, but the dose of NK was 30 mg/kg/day. ANOVA (Dunnett's Method)-positive control (IMQ) vs test groups. The methodology used here was the van der Fits (2009) method with minor modifications.

[9] = tested on: MCP-1; assay: PHA-induced MCP-1 release from human leucocytes (buffy coats); format: cell-based; details: Leucocyte, 30 min pre-incubation, PHA 5 μg/ml 16 hours
Description: as §1, §2, §3

[10] = Dermal and plasma concentrations of NK after oral dosing to dogs; format: in vivo
Description: The purpose was to determine drug concentrations and calculate pharmacokinetics in the skin and plasma of dogs during and following daily oral administration of S-NK-HF (the S-isomer of norketotifen hydrogen fumarate) for four weeks.
Five male beagle dogs, weighing 11.2-13.9 kg (2-4 years old) were included in the study. All animals were administered p.o. doses of the test article 8.0 mg/kg/day as a hydrogen fumarate salt, equal to 5.6 mg/kg/day of the free base. A single isomer of NK was used, since an objective of this study was also to assess the racemization of the NK isomers. The animals were dosed once daily for four weeks followed by daily observations and tissue sampling for an additional two-week washout period.
Multiple plasma samples and skin biopsies were taken from each dog on Day 1 and Day 28 of drug administration. The plasma and skin samplings were performed at pre-dose, and at 2, 6, 12, and 24 hours post-dose. Plasma and skin samples were also taken intermittently at predetermined intervals during the 28-days dosing period and up to the last day of the study, which was Day 42. Blood samples were taken from v. cephalica antebrachii. Skin biopsies were taken from the area between the mid ventral to lateral abdominal areas, using a 6 mm skin biopsy punch. Subcutaneous fat deposits were carefully trimmed from the skin samples and the skin samples were then weighed. All plasma and skin samples were analyzed using LC/MS/MS methodology.

[11] = tested on: INF-γ; assay: PHA-induced INF-γ release from human leucocytes (buffy coats); format: cell-based; details: Leucocyte, 30 min pre-incubation, PHA 5 μg/ml 16 hours
Description: as §1, §2, §3

O=C1Cc2ccccc2C(=C2CCNCC2)c2ccsc21 (racemic) [NK, norketotifen]
Inhibition of release of cytokines and chemokines from human white blood cells (in words) [1]: dose-dependently inhibited | inhibition at 1 µM ([2]; 1 uM): 0% | inhibition at 10 µM ([2]; 10 uM): 46.6% | inhibition at 100 µM ([2]; 100 uM): 93.5% | inhibition at 1 µM ([3]; 1 uM): 0% | inhibition at 10 µM ([3]; 10 uM): 14.3% | inhibition at 100 µM ([3]; 100 uM): 98.3% | Sedative effects [4]: significant sedative effects | inhibition at 1 µM ([5]; 1 uM): 0% | inhibition at 10 µM ([5]; 10 uM): 16.2% | inhibition at 100 µM ([5]; 100 uM): 57% | inhibition at 1 µM ([6]; 1 uM): 12.7% | inhibition at 10 µM ([6]; 10 uM): 24.8% | inhibition at 100 µM ([6]; 100 uM): 90.4% | inhibition at 1 µM ([7]; 1 uM): 4.54% | inhibition at 10 µM ([7]; 10 uM): 42.2% | inhibition at 100 µM ([7]; 100 uM): 89.1% | Scratching bouts ([8]; NK 10 mg/kg/day PO from 3 days before IMQ): 7.0 | Total Scores ± SEM ([8]; NK 10 mg/kg/day oral): 1.5 ± 0.65 | Mean Scores of Skin Lesions: Redness ([8]; NK 10 mg/kg/day oral): 0.75 | Mean Scores of Skin Lesions: Scaling ([8]; NK 10 mg/kg/day oral): 0.25 | Mean Scores of Skin Lesions: Thickness ([8]; NK 10 mg/kg/day oral): 0.5 | Scratching bouts ([8]; NK 20 mg/kg/day PO from 3 days before IMQ): 4.25 | Total Scores ± SEM ([8]; NK 20 mg/kg/day oral): 0.5 ± 0.29 | Mean Scores of Skin Lesions: Redness ([8]; NK 20 mg/kg/day oral): 0.5 | Mean Scores of Skin Lesions: Scaling ([8]; NK 20 mg/kg/day oral): 0 | Mean Scores of Skin Lesions: Thickness ([8]; NK 20 mg/kg/day oral): 0 | Total Scores ± SEM ([8]; NK 30 mg/kg/day oral): 0.33 ± 0.33 | Mean Scores of Skin Lesions: Redness ([8]; NK 30 mg/kg/day oral): 0.33 | Mean Scores of Skin Lesions: Scaling ([8]; NK 30 mg/kg/day oral): 0 | Mean Scores of Skin Lesions: Thickness ([8]; NK 30 mg/kg/day oral): 0 | Inhibition of psoriasis-related cytokine storm (in words) ([8]; antipruritic activity and redness, thickness, scaling scores): almost completely inhibited | Effect on scratching in mice (in words) ([8]; oral NK, not statistically significant (p>0.05)): dose-dependent effect | inhibition at 1 µM ([9]; 1 uM): 2.04% | inhibition at 10 µM ([9]; 10 uM): 14.3% | inhibition at 100 µM ([9]; 100 uM): 84.5% | half-life ([10]; male, beagle, dog, plasma, oral, 8 mg/kg/day, plasma, read-out: Plasma half-life): 10 to 11 h | half-life ([10]; male, beagle, dog, plasma, po, 8 mg/kg/day, oral S-NK 8.0 mg/kg/day for 28 days, dogs (N = 5), plasma, read-out: T1/2 Plasma (converted)): 10.5 h | half-life ([10]; male, beagle, dog, skin, oral, 8 mg/kg/day, skin, read-out: Dermal half-life (duration of high concentration in the skin)): ≤ 168 h | Kp ([10]; male, beagle, dog, skin, oral, 8 mg/kg/day, under laboratory conditions, read-out: Skin concentration relative to plasma concentration): ≤ 16 | half-life ([10]; male, beagle, dog, skin, po, 8 mg/kg/day, oral S-NK 8.0 mg/kg/day for 28 days, dogs (N = 5), skin, read-out: T1/2 Skin (converted)): 168 h | MRT ([10]; male, beagle, dog, oral S-NK 8.0 mg/kg/day for 28 days, dogs (N = 5), plasma, read-out: MRT Plasma): 12.8 h | MRT ([10]; male, beagle, dog, oral S-NK 8.0 mg/kg/day for 28 days, dogs (N = 5), skin, read-out: MRT Skin): 169 h | AUC∞ Plasma ([10]; oral S-NK 8.0 mg/kg/day for 28 days, dogs (N = 5), plasma): 3286 ng*hr/mL or g | AUC∞ Skin ([10]; oral S-NK 8.0 mg/kg/day for 28 days, dogs (N = 5), skin): 54187 ng*hr/mL or g | Dermal half-life in skin of dogs (in words) ([10]; skin of dogs): one week | inhibition at 1 µM ([11]; 1 uM): 0% | inhibition at 10 µM ([11]; 10 uM): 16.5% | inhibition at 100 µM ([11]; 100 uM): 71.6%
